target: DNA-dependent protein kinase catalytic subunit (Homo sapiens, UniProt P78527); test: Inhibition of DNA-dependent protein kinase (DNA-PK) of HeLa cell nuclear cell extract; type: cell-free
Sequence (P78527 whole entry): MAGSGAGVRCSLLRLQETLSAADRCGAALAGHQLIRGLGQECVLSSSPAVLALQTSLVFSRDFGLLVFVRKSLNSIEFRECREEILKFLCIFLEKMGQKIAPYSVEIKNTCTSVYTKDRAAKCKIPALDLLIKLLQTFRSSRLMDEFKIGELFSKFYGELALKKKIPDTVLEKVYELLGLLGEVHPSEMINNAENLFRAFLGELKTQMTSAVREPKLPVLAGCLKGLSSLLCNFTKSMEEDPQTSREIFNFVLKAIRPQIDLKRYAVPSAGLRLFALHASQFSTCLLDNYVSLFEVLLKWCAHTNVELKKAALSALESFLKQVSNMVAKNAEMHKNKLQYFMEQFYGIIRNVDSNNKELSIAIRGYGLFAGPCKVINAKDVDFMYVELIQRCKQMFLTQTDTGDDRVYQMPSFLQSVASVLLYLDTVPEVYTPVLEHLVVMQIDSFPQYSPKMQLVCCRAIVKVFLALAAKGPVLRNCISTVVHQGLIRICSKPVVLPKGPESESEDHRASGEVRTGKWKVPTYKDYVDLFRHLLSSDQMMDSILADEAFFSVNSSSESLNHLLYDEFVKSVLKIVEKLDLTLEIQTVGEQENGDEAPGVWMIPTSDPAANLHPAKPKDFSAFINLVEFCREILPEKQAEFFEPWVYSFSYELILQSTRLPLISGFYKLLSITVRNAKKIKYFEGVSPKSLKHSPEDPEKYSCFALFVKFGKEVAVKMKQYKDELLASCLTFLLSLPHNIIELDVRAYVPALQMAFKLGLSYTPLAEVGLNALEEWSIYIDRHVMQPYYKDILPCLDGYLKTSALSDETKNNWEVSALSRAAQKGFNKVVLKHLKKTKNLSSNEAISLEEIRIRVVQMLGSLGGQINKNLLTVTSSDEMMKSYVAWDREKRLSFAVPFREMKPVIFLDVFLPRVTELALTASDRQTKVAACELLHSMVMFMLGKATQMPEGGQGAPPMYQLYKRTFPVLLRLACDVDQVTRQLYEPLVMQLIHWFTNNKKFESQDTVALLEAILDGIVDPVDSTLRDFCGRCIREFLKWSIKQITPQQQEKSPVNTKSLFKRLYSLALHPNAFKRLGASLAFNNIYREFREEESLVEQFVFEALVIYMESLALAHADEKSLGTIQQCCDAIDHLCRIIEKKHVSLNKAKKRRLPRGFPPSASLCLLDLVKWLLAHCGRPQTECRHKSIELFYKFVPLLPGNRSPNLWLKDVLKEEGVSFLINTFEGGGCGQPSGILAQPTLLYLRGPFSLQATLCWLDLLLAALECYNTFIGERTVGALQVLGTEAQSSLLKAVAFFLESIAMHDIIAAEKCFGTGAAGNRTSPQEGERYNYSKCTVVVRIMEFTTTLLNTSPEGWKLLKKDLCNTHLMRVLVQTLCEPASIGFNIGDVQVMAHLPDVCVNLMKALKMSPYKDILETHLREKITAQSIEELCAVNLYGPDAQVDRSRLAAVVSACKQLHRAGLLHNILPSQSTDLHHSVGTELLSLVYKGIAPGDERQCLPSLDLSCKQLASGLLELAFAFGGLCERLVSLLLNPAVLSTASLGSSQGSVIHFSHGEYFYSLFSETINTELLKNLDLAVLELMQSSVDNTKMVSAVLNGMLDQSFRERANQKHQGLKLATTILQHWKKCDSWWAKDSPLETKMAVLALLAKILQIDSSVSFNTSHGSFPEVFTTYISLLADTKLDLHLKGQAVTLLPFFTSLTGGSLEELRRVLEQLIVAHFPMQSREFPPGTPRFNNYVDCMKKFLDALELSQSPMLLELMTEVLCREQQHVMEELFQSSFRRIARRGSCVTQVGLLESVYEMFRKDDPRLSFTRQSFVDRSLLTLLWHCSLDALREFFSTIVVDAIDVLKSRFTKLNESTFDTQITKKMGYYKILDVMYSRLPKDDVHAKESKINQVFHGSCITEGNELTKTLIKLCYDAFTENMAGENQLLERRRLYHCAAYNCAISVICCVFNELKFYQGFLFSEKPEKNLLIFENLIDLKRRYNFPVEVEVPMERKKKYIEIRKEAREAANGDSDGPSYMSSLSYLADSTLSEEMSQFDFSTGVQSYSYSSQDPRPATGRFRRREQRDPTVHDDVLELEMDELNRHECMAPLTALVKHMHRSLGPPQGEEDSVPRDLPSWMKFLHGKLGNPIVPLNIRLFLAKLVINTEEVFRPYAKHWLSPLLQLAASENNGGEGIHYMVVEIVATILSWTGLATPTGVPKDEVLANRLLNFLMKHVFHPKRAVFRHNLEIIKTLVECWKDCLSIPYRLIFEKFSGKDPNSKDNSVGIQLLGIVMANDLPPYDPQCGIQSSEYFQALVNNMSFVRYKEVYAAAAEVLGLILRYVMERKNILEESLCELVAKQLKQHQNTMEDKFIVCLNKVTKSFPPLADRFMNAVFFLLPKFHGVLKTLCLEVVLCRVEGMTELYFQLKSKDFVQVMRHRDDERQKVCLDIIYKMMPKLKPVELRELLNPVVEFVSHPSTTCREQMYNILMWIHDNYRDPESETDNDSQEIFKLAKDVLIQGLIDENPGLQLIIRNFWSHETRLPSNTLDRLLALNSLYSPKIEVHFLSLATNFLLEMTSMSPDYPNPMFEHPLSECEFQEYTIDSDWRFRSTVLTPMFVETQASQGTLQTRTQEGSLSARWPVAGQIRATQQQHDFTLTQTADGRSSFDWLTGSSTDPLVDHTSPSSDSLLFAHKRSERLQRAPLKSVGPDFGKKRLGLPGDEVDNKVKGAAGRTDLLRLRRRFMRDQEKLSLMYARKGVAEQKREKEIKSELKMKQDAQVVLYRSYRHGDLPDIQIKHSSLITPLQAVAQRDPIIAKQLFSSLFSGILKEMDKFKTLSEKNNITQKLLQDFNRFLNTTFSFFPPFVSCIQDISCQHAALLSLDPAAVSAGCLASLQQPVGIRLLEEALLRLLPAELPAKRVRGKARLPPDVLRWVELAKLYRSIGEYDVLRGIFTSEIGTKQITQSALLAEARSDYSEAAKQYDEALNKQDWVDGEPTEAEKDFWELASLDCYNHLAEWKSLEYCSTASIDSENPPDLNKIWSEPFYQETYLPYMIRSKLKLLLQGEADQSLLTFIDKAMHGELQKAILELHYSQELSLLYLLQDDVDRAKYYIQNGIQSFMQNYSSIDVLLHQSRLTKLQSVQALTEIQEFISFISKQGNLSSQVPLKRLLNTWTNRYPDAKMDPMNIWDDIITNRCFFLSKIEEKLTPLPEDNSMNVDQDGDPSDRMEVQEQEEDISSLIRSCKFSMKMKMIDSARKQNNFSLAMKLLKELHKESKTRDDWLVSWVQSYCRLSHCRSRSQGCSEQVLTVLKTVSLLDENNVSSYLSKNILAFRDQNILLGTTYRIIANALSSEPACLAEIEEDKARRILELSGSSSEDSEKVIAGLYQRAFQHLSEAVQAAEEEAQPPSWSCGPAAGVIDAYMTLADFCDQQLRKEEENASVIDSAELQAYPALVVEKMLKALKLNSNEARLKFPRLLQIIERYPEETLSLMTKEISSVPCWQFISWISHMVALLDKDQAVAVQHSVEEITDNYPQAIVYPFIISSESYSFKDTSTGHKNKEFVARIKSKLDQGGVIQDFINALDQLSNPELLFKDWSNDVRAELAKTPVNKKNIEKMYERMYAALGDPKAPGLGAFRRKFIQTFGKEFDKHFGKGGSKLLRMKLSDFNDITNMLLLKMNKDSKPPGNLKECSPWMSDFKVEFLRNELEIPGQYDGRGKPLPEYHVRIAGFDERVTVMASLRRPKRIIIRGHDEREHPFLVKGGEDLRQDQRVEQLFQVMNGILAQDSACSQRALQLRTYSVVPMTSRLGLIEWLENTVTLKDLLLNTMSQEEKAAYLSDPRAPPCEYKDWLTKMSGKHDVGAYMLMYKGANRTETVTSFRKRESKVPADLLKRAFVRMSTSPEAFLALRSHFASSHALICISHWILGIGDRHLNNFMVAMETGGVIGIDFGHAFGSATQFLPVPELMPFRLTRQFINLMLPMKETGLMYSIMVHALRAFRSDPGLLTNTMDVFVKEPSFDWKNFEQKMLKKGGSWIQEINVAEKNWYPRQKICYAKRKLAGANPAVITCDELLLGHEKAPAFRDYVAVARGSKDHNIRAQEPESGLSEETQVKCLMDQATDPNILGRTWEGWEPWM

IC50 [µM] | Structure (SMILES)
> 500 | COc1ccc(COCc2nc(O)c(C#N)cc2-c2ccncc2)cc1
1.4 | O=c1cc(N2CCOCC2)oc2c(-c3ccccc3)cccc12 [LY-294002]
100 | N#Cc1cc(-c2ccncc2)c(/C=N/N)nc1O
> 500 | N#Cc1cc(-c2ccncc2)c(CO)nc1O

Reference: ChEMBL document CHEMBL1133828, “Synthesis, crystal structure determination, and biological properties of the DNA-dependent protein kinase (DNA-PK) inhibitor 3-cyano-6-hydrazonomethyl-5-(4-pyridyl)pyrid-[1H]-2-one (OK-1035)” (Bioorg Med Chem Lett, 2001)
